Assay results taken from patent US9561289B2, “Peptides for inhibiting tumor growth” (OSPEDALE SAN RAFFAELE SRL, priority 2012, dated 2017).

Columns and labels:
WEHI-164 fibrosarcoma = assay: Tumor growth in WEHI-164 fibrosarcoma-bearing mice; assay type: in vivo; settings: WEHI-164 model, i.p., biweekly, 0.032 to 20 μg
Description: Arrows indicate the time of treatment. Tumor volumes are shown. Mean±S.E (6 or 12 mice/group).
Studies in animal models were approved by the Ethical Committee of the San Raffaele Scientific Institute, and performed according to the prescribed guidelines. BALB/c (Harlan) or C57BL/6N mice (Charles River Laboratories), weighing 16 to 18 g, were challenged with s.c. injection in the left flank of 10^6 WEHI-164 or 7×10^4 RMA living cells. […] Tumor growth was monitored daily by measuring tumor volumes with calipers, as previously described [30]. Animals were sacrificed before tumors reached a diameter of 1.0 to 1.5 cm. Tumor sizes are shown as mean±SE (6 mice/group in each experiment).

[1] = test system: CD13-positive (HT-1080 and HUVECs) cells; assay: Binding of NGR peptide/Qdot to CD13-positive cells (fluorescence microscopy); assay type: cell-based, human; settings: 2 h at 37° C.
Procedure: (§1) (B) Binding of head-to-tail cyclized NGR peptides and disulphide constrained NGR peptide (ac-NGR-2C-TNF1-11, corresponding to acetylated-[…]) (SEQ ID NO:33) conjugated to fluorescent nanoparticles (Qdot) to HT-1080, human umbilical vein cells (HUVECs), and MCF-7 cells. NGR#/Qdots were prepared using the sulfo-SMCC linker (black, bars), whereas ac-NGR-2C-TNF1-11/Qdot were prepared using the BS3 linker (white, bars). Linker-Qdot, i.e. lacking the peptide, are indicated as None. Quantification of staining intensity was performed by using the Photoshop software. Six images were analyzed for each condition. Representative images are shown. Magnification, ×400; scale bar, 20 μm; red, Qdot; blue, nuclear staining with DAPI.
(§2) The binding of NGR-peptide/Qdot conjugates to HT-1080, HUVECs and MCF-7, was analyzed as follows: the cells were grown in chamber slides (3-4×10^4 cell/well, plated 48 h before the experiment). After washing with DMEM containing 1% fetal bovine serum (binding buffer), each NGR-peptide/Qdot conjugate (3-10 nM, in binding buffer) was added to the cells and left to incubate for 2 h at 37° C. in 5% CO2. […] The cells were then analyzed using an Axioscop 40 FL microscope (Carl Zeiss, Germany) equipped with AxioCam MRc5 digital camera and Axiovison software (Carl Zeiss).

[2] = test system: CD13-negative MCF-7 cells; assay: Binding of NGR peptide/Qdot to CD13-negative cells (fluorescence microscopy); assay type: cell-based, human
Procedure: as §1, §2

## CC(C)[C@H]1C(=O)N[C@@H](CCCNC(=N)N)C(=O)NCC(=O)N[C@@H](CC(=O)O)C(=O)N[C@H](Cc2ccccc2)C(=O)N1C [Cilengitide, cyclo(arginylglycyl-aspartyl-D-phenylalanyl-N-methyl-valyl)]
WEHI-164 fibrosarcoma
  tumor growth: can delay the growth

## NGR#3-Qdot: NGR#3 coupled to sulfo-SMCC-activated Qdot fluorescent nanoparticles (cyclo(CNGRGG); not fully specified (residue 1); also: linker joined to Qdot605 nanoparticle)
[1]
  binding to CD13-positive cells: could bind CD13-positive cells
[2]
  binding to CD13-negative cells: failed to bind
